From publication PMC8533299, “Synthesis, In Silico Study, and Anti-Cancer Activity of Thiosemicarbazone Derivatives” (Biomedicines, 2021)
≈ marks a conversion by molar mass, not a printed value. Where “and” joins values, the source holds several entries; their conditions need not be identical. Identical values can stand only once.

What was measured:
[1] = system: gene expression in MCF-7 human breast cancer cells; test: RT-qPCR gene expression in MCF-7 cells; format: cell-based; conditions: for BCl2 Treated (RQ value) / BRCA1 Treated (RQ value) / BRCA2 Treated (RQ value) / Bax Treated (RQ value) / Caspase-3 Treated (RQ value) / Dmp1 Treated (RQ value) / ER Treated (RQ value) / Hdm2 Treated (RQ value) / Myc Treated (RQ value) / PKC Treated (RQ value) / PR Treated (RQ value) / PTEN Treated (RQ value) / RAS Treated (RQ value) / p19 Arf Treated (RQ value) / p21 Treated (RQ value) / p53 Treated (RQ value) / pRB Treated (RQ value): MCF-7 cells treated, GAPDH housekeeping gene
Description: Total mRNA was isolated and extracted by Trizol reagent as described in an earlier method. RevertAid First Strand cDNA synthesis kit (Thermo Fisher Scientific, Waltham, MA, USA) was used to synthesize cDNA in a total reaction volume of 20 μL containing oligo-dT primers, RiboLock RNase inhibitor, and reverse transcriptase. Gene-specific primers were used to amplify cDNAs in RT-qPCR machine (Applied Biosystems, Waltham, MA, USA).

[2] = system: NIH/3T3 (Mouse fibroblast cells); test: MTT cytotoxicity test on NIH-3T3 cells; format: cell-based; conditions: 48 h
Description: (§1) The in vitro anticancer activities of the synthesized compounds were conducted using different cancerous and non-cancerous cell lines viz B16-F0 (Mouse melanoma), mouse Ehrlich Ascites Carcinoma (EAC), MCF-7 (Human breast cancer), MCF-10A (Human breast epithelial cells), and NIH/3T3 (Mouse fibroblast cells). All cell lines were procured from the National Centre for Cell Science, Pune, India. The procured cells were cultured in a six-well culture plate with Dulbecco’s Modified Eagle’s Medium (DMEM) supplemented with 10% fetal bovine serum in a humid CO2 incubator with 5% carbon dioxide at 37 °C.
(§2) The anti-cancer effect and cytotoxicity of both 3-MBTSc and 4-NBTSc compounds were evaluated against different cancerous (MCF-7, EAC, B16-F0 cells) and noncancerous cells (MCF-10A, NIH-3T3 cells) using MTT test. In brief, the stock solutions of both the tested compounds were prepared by dissolving 1 mg of each compound in 1 mL of DMSO separately. Then, four different concentrations (5, 10, 12, and 20 µg/mL) of both compounds were used during the test along with the negative control. Also, 10 μg/mL of doxorubicin (Dox) was used as the positive control during the experiment. Both untreated and treated cells were incubated for next 24 and 48 h. Then, all the steps during the whole experiment were carried out by our earlier reported procedure. Later, the absorbance values were measured by an ELISA reader (Biorad, Hercules, CA, USA) at 570 nm wavelength using secondary wavelength as a reference at 620 nm and the percentages of cell viability was calculated using the following formula [59, 60, 61]. Cell viability (%)= Mean absorbance of treated cells/Mean absorbance of untreated cells × 100

[3] = MTT cytotoxicity test on NIH-3T3 cells; format: cell-based, Mouse; conditions: mouse, NIH/3T3 fibroblast cells
Description: as §1, §2

MCF-7, EAC, B16-F0 cells = test: MTT test, cancer cell lines overall; format: cell-based; conditions: over the cell lines tested; read-out: IC50 (range over treated cells)
Description: as §1
The anti-cancer effect and cytotoxicity of both 3-MBTSc and 4-NBTSc compounds were evaluated against different cancerous (MCF-7, EAC, B16-F0 cells) and noncancerous cells (MCF-10A, NIH-3T3 cells) using MTT test. […] Later, the absorbance values were measured by an ELISA reader (Biorad, Hercules, CA, USA) at 570 nm wavelength using secondary wavelength as a reference at 620 nm and the percentages of cell viability was calculated using the following formula [59, 60, 61]. Cell viability (%)= Mean absorbance of treated cells/Mean absorbance of untreated cells × 100
Based on the cell viability data, the IC50 values of both compounds were calculated on different cancer cells by plotting their corresponding dose-responsive graphs.
The obtained data were statistically analyzed. […]

[4] = Solubility of the obtained compound in solvents; format: physicochemical
Description: 3-Methoxybenzaldehyde thiosemicarbazone (C9H11N3OS; (2E)-2-(3-methoxybenzylidene) hydrazine carbothioamide) (3MBTSc) was prepared by using the previous procedure with slight modifications. It was prepared by refluxing a mixture of thiosemicarbazide ([…], 0.01 mmol) and 3-Methoxybenzaldehyde (2.67 mL, 0.01 mmol) in a mixture of 20 mL distilled water and 20 mL methanol as the solvent medium in the presence of glacial acetic acid (2–3 mL). The reaction mixture was refluxed for about 3–4 h. After cooling, the yellow crystalline solid separated was filtered, washed, and dried. The yield of the compound was 2.16 g and the obtained compound was insoluble in CHCl3, CCl4, CH3CN, H2O, ethanol, and methanol but it was soluble in DMSO and DHF/THF. The following characterization was carried out to confirm the synthesis of 3-Methoxybenzaldehyde thiosemicarbazone by FTIR (cm^−1): v(NH2) 3403s; 3287s; v(-NH) 3150s; 1599s v(C=N); v(C=S) 1246s, 836s, ^1H-NMR (DMSO-d^6, ppm): 11.40 (s, 1H); 8.19 (s, 2H); 6.95–7.44 (m, ar-H); 3.80 (s, 3H), and ^13C-NMR (DMSO-d^6, ppm): 178.9 (s, C=S), 55.76 (s, OCH3), 111-143 (m-Ph-C), 159.6 (s, C=N).
4-Nitrobenzaldehyde thiosemicarbazone ((2E)-2-(4-nitrobenzylidene) hydrazine carbothioamide) (4NBTSc) was synthesized using earlier reported methods with slight modifications. A mixture of 1.51 g (0.01 mmol) of 4-Nitrobenzaldehyde, and 0.914 g (0.01 mmol) thiosemicarbazide was stirred for 2 h using 15 mL of methanol and 15 mL of distilled water as a solvent medium. The resulting yellow solution was allowed to cool. Then, a yellow crystalline solid separated was filtered, washed with diethyl ether and dried. The yield of the compound was 2.30 g and the obtained compound was insoluble in CHCl3, CCl4, CH3CN, H2O, ethanol, and methanol but it was soluble in DMSO and DHF/THF. The following characterization was carried out to confirm the synthesis of 4-Nitrobenzaldehyde thiosemicarbazone by FTIR (cm^−1): v(NH2) 3499m; 3373s; v(-NH) 3197s; 1588s; 1343s (v(NO2); v(C=N); v(C=S) 1137s, 750s, ^1H-NMR (DMSO-d^6, ppm): 11.66 (s, 1H); 8.38 (s, 2H); 8.32–8.03 (m, ar-H), and ^13C-NMR (DMSO-d^6, ppm): 179 (s, C=S), 128-141 (m-Ph-C), 148.06(s, C=N), 124.23 (s, CH).

[5] = MCF-7 cells, difference of RQ values

NC(=S)N[N-][CH+]c1ccc([N+](=O)[O-])cc1 [4-NBTSc, 4-Nitrobenzaldehyde thiosemicarbazone]
BCl2 Treated (RQ value) [1]: 3.11 ± 0.01 | BRCA1 Treated (RQ value) [1]: 2.86 ± 0.455 | BRCA2 Treated (RQ value) [1]: 4.13 ± 0.02 | Bax Treated (RQ value) [1]: 1.825 ± 0.025 | Caspase-3 Treated (RQ value) [1]: 1.85 ± 0.04 | Dmp1 Treated (RQ value) [1]: 2.19 ± 0.02 | ER Treated (RQ value) [1]: 2.14 ± 0.03 | Hdm2 Treated (RQ value) [1]: 3.92 ± 0.045 | Myc Treated (RQ value) [1]: 2.35 ± 0.025 | PKC Treated (RQ value) [1]: 6.09 ± 0.02 | PR Treated (RQ value) [1]: 1.15 ± 0.02 | PTEN Treated (RQ value) [1]: 5.09 ± 0.02 | RAS Treated (RQ value) [1]: 3.94 ± 0.02 | p19 Arf Treated (RQ value) [1]: 0.995 ± 0.025 | p21 Treated (RQ value) [1]: 4.12 ± 1.51 | p53 Treated (RQ value) [1]: 4.185 ± 0.025 | pRB Treated (RQ value) [1]: 3.81 ± 0.02 | BCl2 Fold Change (MCF 7 treated-MCF 7 untreated) [1, 5]: 1.02 fold | BRCA1 Fold Change (MCF 7 treated-MCF 7 untreated) [1, 5]: 1.06 fold | BRCA2 Fold Change (MCF 7 treated-MCF 7 untreated) [1, 5]: 2.19 fold | Bax Fold Change (MCF 7 treated-MCF 7 untreated) [1, 5]: 1.1 fold | Caspase-3 Fold Change (MCF 7 treated-MCF 7 untreated) [1, 5]: 1.25 fold | Dmp1 Fold Change (MCF 7 treated-MCF 7 untreated) [1, 5]: -0.3 fold | ER Fold Change (MCF 7 treated-MCF 7 untreated) [1, 5]: -2.7 fold | Hdm2 Fold Change (MCF 7 treated-MCF 7 untreated) [1, 5]: -3.32 fold | Myc Fold Change (MCF 7 treated-MCF 7 untreated) [1, 5]: -5.1 fold | PR Fold Change (MCF 7 treated-MCF 7 untreated) [1, 5]: -0.05 fold | PTEN Fold Change (MCF 7 treated-MCF 7 untreated) [1, 5]: 2.945 fold and 2.95 fold | p19 Arf Fold Change (MCF 7 treated-MCF 7 untreated) [1, 5]: -0.34 fold | p21 Fold Change (MCF 7 treated-MCF 7 untreated) [1, 5]: 1.93 fold | p53 Fold Change (MCF 7 treated-MCF 7 untreated) [1, 5]: 2.025 fold | pRB Fold Change (MCF 7 treated-MCF 7 untreated) [1, 5]: 2.21 fold | toxicity [2]: less than 20% | viability at 48 h [3]: > 80% | IC50 (MCF-7, EAC, B16-F0 cells): 2.8 to 7.59 µg/mL (≈ 12.5 to 33.8 µM) | solubility in CHCl3, CCl4, CH3CN, H2O, ethanol, and methanol [4]: insoluble | solubility in DMSO and DHF/THF [4]: soluble

COc1cccc(C=NNC(N)=S)c1 [3-MBTSc, 3-Methoxybenzaldehyde thiosemicarbazone]
BCl2 Treated (RQ value) [1]: 2.375 ± 0.025 | BRCA1 Treated (RQ value) [1]: 7.13 ± 0.01 | BRCA2 Treated (RQ value) [1]: 1.235 ± 0.005 | Bax Treated (RQ value) [1]: 2.125 ± 0.025 | Caspase-3 Treated (RQ value) [1]: 2.13 ± 0.01 | Dmp1 Treated (RQ value) [1]: 2.1 ± 0.03 | ER Treated (RQ value) [1]: 3.15 ± 0.03 | Hdm2 Treated (RQ value) [1]: 5.26 ± 0.045 | Myc Treated (RQ value) [1]: 3.43 ± 0.015 | PKC Treated (RQ value) [1]: 5.455 ± 0.015 | PR Treated (RQ value) [1]: 1.23 ± 0.02 | PTEN Treated (RQ value) [1]: 3.78 ± 0.02 | RAS Treated (RQ value) [1]: 3.905 ± 0.035 | p19 Arf Treated (RQ value) [1]: 4.575 ± 0.055 | p21 Treated (RQ value) [1]: 3.125 ± 0.025 | p53 Treated (RQ value) [1]: 5.185 ± 0.015 | pRB Treated (RQ value) [1]: 3.11 ± 0.01 | BCl2 Fold Change (MCF 7 treated-MCF 7 untreated) [1, 5]: 0.285 fold | BRCA1 Fold Change (MCF 7 treated-MCF 7 untreated) [1, 5]: 5.33 fold | BRCA2 Fold Change (MCF 7 treated-MCF 7 untreated) [1, 5]: -0.7 fold | Bax Fold Change (MCF 7 treated-MCF 7 untreated) [1, 5]: 1.4 fold | Caspase-3 Fold Change (MCF 7 treated-MCF 7 untreated) [1, 5]: 1.53 fold | Hdm2 Fold Change (MCF 7 treated-MCF 7 untreated) [1, 5]: -1.98 fold | Myc Fold Change (MCF 7 treated-MCF 7 untreated) [1, 5]: -4.02 fold | PKC Fold Change (MCF 7 treated-MCF 7 untreated) [1, 5]: -7.64 fold | PR Fold Change (MCF 7 treated-MCF 7 untreated) [1, 5]: 0.035 fold | PTEN Fold Change (MCF 7 treated-MCF 7 untreated) [1, 5]: 1.635 fold | RAS Fold Change (MCF 7 treated-MCF 7 untreated) [1, 5]: −5.92 fold | p19 Arf Fold Change (MCF 7 treated-MCF 7 untreated) [1, 5]: 3.24 fold | p21 Fold Change (MCF 7 treated-MCF 7 untreated) [1, 5]: 0.935 fold | p53 Fold Change (MCF 7 treated-MCF 7 untreated) [1, 5]: 3.025 fold | pRB Fold Change (MCF 7 treated-MCF 7 untreated) [1, 5]: 1.51 fold | toxicity [2]: less than 20% | viability at 48 h [3]: > 80% | IC50 (MCF-7, EAC, B16-F0 cells): 2.82 to 14.2 µg/mL (≈ 13.5 to 68.1 µM) | solubility in CHCl3, CCl4, CH3CN, H2O, ethanol, and methanol [4]: insoluble | solubility in DMSO and DHF/THF [4]: soluble
